This is an account of results in patent publication US11576897B2, “Therapeutic agent for non-motor symptoms associated with Parkinson's disease” (priority 2017, dated 2023).

Structures are written as SMILES. Where a name gives a salt, the structure may show the parent alone. Read-outs that look alike come from different tables or passages of the source. Some results are limits rather than exact numbers.

One test deals with human 5-HT2A receptor (Homo sapiens (Human), UniProt P28223). Put plainly: biochemical. The test is classed as binding.
Test [1] deals with human serotonin transporter (SERT) (Homo sapiens (Human), UniProt P31645). Put plainly: Human serotonin transporter (SERT) binding test.
Another test addresses human 5-HT2C receptor (Homo sapiens (Human), UniProt P28335).
A further test addresses human D2L receptor (Homo sapiens (Human), UniProt P14416). Put plainly: Dopamine D2L receptor binding test.
Where [2] appears, read: read-out: 5-HT2A receptor binding inhibition constant Ki.
[3] abbreviates: [3H]-citalopram, h-SERT/CHO cell membrane, read-out: h-SERT binding inhibition constant Ki.
The mark [4] stands for this setting: [3H]-ketanserin, human 5-HT2A receptor-expressed CHO cell membrane, read-out: 5-HT2A receptor binding inhibition constant Ki.

Sequence of human 5-HT2C receptor (P28335 whole entry, looked up): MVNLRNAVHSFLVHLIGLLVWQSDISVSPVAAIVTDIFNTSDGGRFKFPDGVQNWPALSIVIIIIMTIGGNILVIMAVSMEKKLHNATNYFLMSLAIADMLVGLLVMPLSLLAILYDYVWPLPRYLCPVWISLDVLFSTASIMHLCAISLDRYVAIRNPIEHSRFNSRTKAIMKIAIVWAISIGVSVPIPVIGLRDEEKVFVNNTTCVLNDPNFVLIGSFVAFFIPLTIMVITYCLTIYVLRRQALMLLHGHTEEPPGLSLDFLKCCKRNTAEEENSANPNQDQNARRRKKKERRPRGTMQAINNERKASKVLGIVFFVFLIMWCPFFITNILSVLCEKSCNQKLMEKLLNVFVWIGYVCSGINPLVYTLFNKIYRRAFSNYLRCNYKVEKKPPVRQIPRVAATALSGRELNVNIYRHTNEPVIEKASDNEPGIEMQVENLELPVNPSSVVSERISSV
Sequence of human D2L receptor (P14416 whole entry): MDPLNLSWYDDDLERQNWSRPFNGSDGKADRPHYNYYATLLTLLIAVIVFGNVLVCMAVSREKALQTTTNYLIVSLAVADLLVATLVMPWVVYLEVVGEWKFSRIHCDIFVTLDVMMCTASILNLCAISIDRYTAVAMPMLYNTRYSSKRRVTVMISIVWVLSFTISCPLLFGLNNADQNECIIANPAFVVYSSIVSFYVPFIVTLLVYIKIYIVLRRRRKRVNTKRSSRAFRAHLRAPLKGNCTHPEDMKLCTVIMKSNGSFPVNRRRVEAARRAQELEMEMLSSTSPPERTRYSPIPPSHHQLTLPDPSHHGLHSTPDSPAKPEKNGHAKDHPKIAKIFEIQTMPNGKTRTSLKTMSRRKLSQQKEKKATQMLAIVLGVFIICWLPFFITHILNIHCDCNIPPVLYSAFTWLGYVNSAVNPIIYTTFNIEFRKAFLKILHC

On to `Cl.[2H]C([2H])(Oc1cc(CNC)nn1CC1CCCC1)c1cc(Cl)ccc1F` [Example 496, 1-[5-{[(5-Chloro-2-fluorophenyl) (^2H2)methyl]oxy}-1-(cyclopentylmethyl)-1H-pyrazol-3-yl]-N-methylmethanamine Hydrochloride], for which the results for the inhibitory constant (Ki) (at human 5-HT2A receptor; in test [1]; on human 5-HT2C receptor) were 1.7 nM, 2 nM and 1.1 nM, respectively.
Consider `CNCc1cc(OCc2ccccc2C#N)n(CC2CCCC2)n1` [Example 162, 2-[({1-(cyclopentylmethyl)-3-[(methylamino)methyl]-1H-pyrazol-5-yl}oxy)methyl]benzonitrile], for which the Ki (as a rule, a dissociation constant, usually derived from enzyme kinetics or from competition with a known ligand) on human 5-HT2A receptor (setting [2]) was 2.7 nM; in test [1] (setting [3]), 7.8 nM.
For the molecule `CNCc1cc(OCc2ccccc2C)n(C(C)C2CCCCC2)n1` (stereo not drawn) [Example 298, 1-{1-(1-cyclohexylethyl)-5-[(2-methylbenzyl)oxy]-1H-pyrazol-3-yl}-N-methylmethanamine], the inhibition constant (Ki) at human 5-HT2A receptor (setting [4]) was 3.3 nM; in test [1] (setting [3]), 0.56 nM.
On to `CNCc1cc(OCc2cc(Cl)ccc2F)n(C(C)C2CCCCC2)n1` (stereo not drawn) [Example 304, 1-{5-[(5-chloro-2-fluorobenzyl)oxy]-1-(1-cyclohexylethyl)-1H-pyrazol-3-yl}-N-methylmethanamine], for which the Ki at human 5-HT2A receptor (setting [2]) was 1.4 nM; in test [1] (setting [3]), 1.3 nM.
Consider `CNCc1cc(OCc2cc(F)ccc2F)n(C(C)C2CCCCC2)n1` (stereo not drawn) [Example 303, 1-{1-(1-cyclohexylethyl)-5-[(2,5-difluorobenzyl)oxy]-1H-pyrazol-3-yl}-N-methylmethanamine], for which the values for the Ki (on human 5-HT2A receptor (setting [4]); in test [1] (setting [3])) were 1.8 nM and 0.46 nM, respectively.
Take `CNCc1cc(OCc2cc(Cl)ccc2Cl)n(CC2CCCCC2)n1` [Example 38, 1-{1-(cyclohexylmethyl)-5-[(2,5-dichlorobenzyl)oxy]-1H-pyrazol-3-yl}-N-methylmethanamine]: the Ki at human 5-HT2A receptor (setting [4]) amounted to 3.2 nM; in test [1] (setting [3]) it was 2.4 nM.
As to `CNCc1cc(OCc2cc(C)ccc2F)n(C(C)C2CCCCC2)n1` (stereo not drawn) [Example 305, 1-{1-(1-cyclohexylethyl)-5-[(2-fluoro-5-methylbenzyl)oxy]-1H-pyrazol-3-yl}-N-methylmethanamine], the inhibition constant (Ki) was determined as 2.5 nM on human 5-HT2A receptor (setting [2]) and 2 nM in test [1] (setting [3]).
Consider `[2H]C([2H])([2H])NCc1cc(OCc2ccccc2)n(CC2CCCCC2)n1` [Example 494, 1-[5-(Benzyloxy)-1-(cyclohexylmethyl)-1H-pyrazol-3-yl]-N-(^2H3)methylmethanamine], for which the figures for the Ki (on human 5-HT2A receptor; in test [1]; at human 5-HT2C receptor) were 3.6 nM, 1.1 nM and 7.1 nM, respectively.
The like results for `[2H]C([2H])(NC)c1cc(OCc2ccccc2)n(CC2CCCCC2)n1` [Example 492, 1-[5-(Benzyloxy)-1-(cyclohexylmethyl)-1H-pyrazol-3-yl]-N-methyl(^2H2)methanamine] were, in that order, 2.9 nM, 1.4 nM and 6.8 nM.
With `CNCc1cc(OCc2cc(F)ccc2F)n(CCC(C)(C)C)n1` [Example 500, 1-{5-[(2,5-Difluorobenzyl)oxy]-1-(3,3-dimethylbutyl)-1H-pyrazol-3-yl}-N-methylmethanamine Monophosphate], the IC50 (in general, the midpoint of a concentration-inhibition curve) on human D2L receptor is above 1000 nM.
Regarding `CNCc1cc(OCc2cc(F)ccc2F)n(CC(C)(C)C)n1` [Example 504, 1-{5-[(2,5-Difluorobenzyl)oxy]-1-(2,2-dimethylpropyl)-1H-pyrazol-3-yl}-N-methylmethanamine monophosphate dihydrate], on human D2L receptor, the 50% inhibitory concentration (IC50) was above 1000 nM.
For the molecule `CNCc1cc(OCc2cc(F)ccc2F)n(CC2CCC(F)(F)CC2)n1` [Example 124, 1-{5-[(2,5-difluorobenzyl)oxy]-1-[(4,4-difluorocyclohexyl)methyl]-1H-pyrazol-3-yl}-N-methylmethanamine], the Ki at human 5-HT2A receptor (setting [4]) is 1.7 nM; in test [1] (setting [3]), 0.71 nM.
As for `CNCc1cc(OCc2ccccc2F)n(C(C)C2CCCCC2)n1` (stereo not drawn) [Example 293, 1-{1-(1-cyclohexylethyl)-5-[(2-fluorobenzyl)oxy]-1H-pyrazol-3-yl}-N-methylmethanamine], the inhibitory constant (Ki) at human 5-HT2A receptor (setting [4]) came out at 1.1 nM; in test [1] (setting [3]), 0.67 nM.
`[2H]C([2H])(Oc1cc(CNC)nn1CC1CCCC1)c1cc(F)ccc1F` [Example 495, 1-[1-(Cyclopentylmethyl)-5-{[(2,5-difluorophenyl) (^2H2)methyl]oxy}-1H-pyrazol-3-yl]-N-methylmethanamine Hydrochloride]: the inhibition constant (Ki) is 2 nM at human 5-HT2A receptor (setting [4]), 0.24 nM in test [1] and 2.5 nM at human 5-HT2C receptor.
`CNCc1cc(OCc2cccc(C)c2)n(C(C)C2CCCCC2)n1` (stereo not drawn) [Example 299, 1-{1-(1-cyclohexylethyl)-5-[(3-methylbenzyl)oxy]-1H-pyrazol-3-yl}-N-methylmethanamine]: the values for the Ki (at human 5-HT2A receptor (setting [4]); in test [1] (setting [3])) were 5.6 nM and 1.4 nM, respectively.
In the case of `CNCc1cc(OCc2cccc(Cl)c2)n(CC2OC3CCC2CC3)n1` (stereo not drawn) [Example 508, 1-{5-[(3-chlorobenzyl)oxy]-1-(2-oxabicyclo[2.2.2]oct-3-ylmethyl)-1H-pyrazol-3-yl}-N-methylmethanamine], the inhibition constant (Ki) on human 5-HT2A receptor (setting [4]) is 9.4 nM; in test [1] (setting [3]) it was 8.1 nM.
As to `CNCc1cc(OCc2cc(F)ccc2F)n(CC2CC3CCC2C3)n1` (stereo not drawn) [Example 117, 1-{1-(bicyclo[2.2.1]hept-2-ylmethyl)-5-[(2,5-difluorobenzyl)oxy]-1H-pyrazol-3-yl}-N-methylmethanamine], the inhibition constant Ki at human 5-HT2A receptor (setting [2]) was found to be 0.76 nM; in test [1] (setting [3]), 0.5 nM.
In the case of `CNCc1cc(OCc2ccc(F)cc2Cl)n(CC2CCCCC2)n1` [Example 30, 1-{5-[(2-chloro-4-fluorobenzyl)oxy]-1-(cyclohexylmethyl)-1H-pyrazol-3-yl}-N-methylmethanamine], the values for the inhibition constant Ki (at human 5-HT2A receptor (setting [4]); in test [1] (setting [3])) were 0.52 nM and 1.5 nM, respectively.
Turning to `CNCc1cc(OCc2ccc(F)cc2Cl)n(C(C)C2CCCCC2)n1` (stereo not drawn) [Example 301, 1-{5-[(2-chloro-4-fluorobenzyl)oxy]-1-(1-cyclohexylethyl)-1H-pyrazol-3-yl}-N-methylmethanamine], the Ki on human 5-HT2A receptor (setting [4]) was 0.88 nM; in test [1] (setting [3]), 1.3 nM.
For `CNCc1cc(OCc2ccccc2Cl)n(CC2CCCC2)n1` [Example 138, 1-{5-[(2-chlorobenzyl)oxy]-1-(cyclopentylmethyl)-1H-pyrazol-3-yl}-N-methylmethanamine], in that order: 11 nM and 1.8 nM.
For `CNCc1cc(OCc2cc(Cl)ccc2F)n(C(C)C2CCCC2)n1` (stereo not drawn) [Example 291, 1-{5-[(5-chloro-2-fluorobenzyl)oxy]-1-(1-cyclopentylethyl)-1H-pyrazol-3-yl}-N-methylmethanamine], in that order: 2.5 nM and 1.2 nM.
As to `CNCc1cc(OCc2ccccc2Cl)n(C(C)C2CCCCC2)n1` (stereo not drawn) [Example 296, 1-{5-[(2-chlorobenzyl)oxy]-1-(1-cyclohexylethyl)-1H-pyrazol-3-yl}-N-methylmethanamine], the Ki came to 2.1 nM on human 5-HT2A receptor (setting [4]), 0.91 nM in test [1] and 6.2 nM at human 5-HT2C receptor.
As for `[2H]C([2H])([2H])NC([2H])([2H])c1cc(OCc2ccccc2)n(CC2CCCCC2)n1` [Example 493, 1-[5-(Benzyloxy)-1-(cyclohexylmethyl)-1H-pyrazol-3-yl]-N-(^2H3)methyl(^2H2) methanamine], the Ki at human 5-HT2A receptor was determined as 2.3 nM; in test [1], 1.1 nM; at human 5-HT2C receptor, 7.2 nM.
Take `CNCc1cc(OCc2ccc(F)cc2)n(C(C)C2CCCCC2)n1` (stereo not drawn) [Example 295, 1-{1-(1-cyclohexylethyl)-5-[(4-fluorobenzyl)oxy]-1H-pyrazol-3-yl}-N-methylmethanamine]: the inhibition constant Ki on human 5-HT2A receptor (setting [4]) was determined as 0.74 nM; in test [1] (setting [3]), 0.95 nM.
`CNCc1cc(OCc2ccc(F)cc2F)n(C(C)C2CCCCC2)n1` (stereo not drawn) [Example 300, 1-{1-(1-cyclohexylethyl)-5-[(2,4-difluorobenzyl)oxy]-1H-pyrazol-3-yl}-N-methylmethanamine]: the Ki was 0.57 nM at human 5-HT2A receptor (setting [4]) and 1.8 nM in test [1] (setting [3]).
Consider `CNCc1cc(OCc2cc(F)ccc2F)n(Cc2ccc(Cl)cc2)n1` [Example 224, 1-{1-(4-chlorobenzyl)-5-[(2,5-difluorobenzyl)oxy]-1H-pyrazol-3-yl}-N-methylmethanamine], for which the inhibition constant (Ki) worked out at 1.2 nM on human 5-HT2A receptor (setting [4]) and 1.5 nM in test [1] (setting [3]).
In the case of `CNCc1nn(CC2CCCCC2)c(OCc2cc(F)ccc2F)c1F` [Example 351], the Ki worked out at 15 nM at human 5-HT2A receptor (setting [4]) and 0.98 nM in test [1] (setting [3]).
Take `CNCc1cc(OCc2cc(Cl)ccc2F)n(CCC(C)(C)OC)n1` [Example 275, 1-{5-[(5-chloro-2-fluorobenzyl)oxy]-1-(3-methoxy-3-methylbutyl)-1H-pyrazol-3-yl}-N-methylmethanamine]: the Ki at human 5-HT2A receptor (setting [4]) is 5.9 nM. The molecule also displayed an IC50 at human D2L receptor above 1000 nM.
For the molecule `CNCc1cc(OCc2ccc(F)cc2C)n(CC2CCCCO2)n1` (stereo not drawn) [Example 108, 1-{5-[(4-fluoro-2-methylbenzyl)oxy]-1-(tetrahydro-2H-pyran-2-ylmethyl)-1H-pyrazolo-3-yl}-N-methylmethanamine], the values for the Ki (on human 5-HT2A receptor (setting [4]); in test [1] (setting [3])) were 4.8 nM and 1.9 nM, respectively.
Turning to `CNCc1cc(OCc2cc(Cl)ccc2F)n(CC2CC3CCC2C3)n1` (stereo not drawn) [Example 118, 1-{1-(bicyclo[2.2.1]hept-2-ylmethyl)-5-[(5-chloro-2-fluorobenzyl)oxy]-1H-pyrazol-3-yl}-N-methylmethanamine], the inhibitory constant (Ki) on human 5-HT2A receptor (setting [4]) is 0.73 nM; in test [1] (setting [3]), 2 nM.
Regarding `CNCc1cc(OCc2cc(F)ccc2Cl)n(CC2CCCCC2)n1` [Example 37, 1-{5-[(2-chloro-5-fluorobenzyl)oxy]-1-(cyclohexylmethyl)-1H-pyrazol-3-yl}-N-methylmethanamine], the Ki is 2.1 nM on human 5-HT2A receptor (setting [2]) and 0.89 nM in test [1] (setting [3]).
